Experimental data reported in the NIST ThermoML archive (doi:10.1016/j.tca.2007.08.008).

What was measured:
[1] = Liquid; for mass density: 303.15 K, 101.33 kPa, Pycnometric method; for Normal boiling temperature: Ebulliometric method (Recirculating still)
[2] = excess molar enthalpy (molar enthalpy of mixing); xn = mol fraction of the nth substance listed; conditions: 298.15 K, 101.3 kPa, Liquid, Calvet calorimetry

CC(Cl)(Cl)Cl [1,1,1-trichloroethane]
[1]
Conditions | Normal boiling temperature [°C] | mass density [kg/m3]
– | 74.20 | 1320.97

CC(Cl)(Cl)Cl [1,1,1-trichloroethane] + C[S+](C)[O-]
[2]
Conditions | excess molar enthalpy [kcal/mol]
x1 = 0.0243 | -0.0102
x1 = 0.0579 | -0.023
x1 = 0.109 | -0.0422
x1 = 0.1532 | -0.0563
x1 = 0.1973 | -0.0679
x1 = 0.244 | -0.0796
x1 = 0.2857 | -0.087
x1 = 0.3462 | -0.0932
x1 = 0.4106 | -0.0986
x1 = 0.4797 | -0.0987
x1 = 0.5571 | -0.0945
x1 = 0.6064 | -0.0869
x1 = 0.6632 | -0.0775
x1 = 0.7189 | -0.0666
x1 = 0.7771 | -0.0526
x1 = 0.8537 | -0.0323
x1 = 0.9297 | -0.0102

ClC(Cl)C(Cl)Cl [1,1,2,2-tetrachloroethane]
[1]
Conditions | Normal boiling temperature [°C] | mass density [kg/m3]
– | 145.20 | 1578.59

ClC(Cl)C(Cl)Cl [1,1,2,2-tetrachloroethane] + C[S+](C)[O-]
[2]
Conditions | excess molar enthalpy [kcal/mol]
x1 = 0.0378 | -0.0704
x1 = 0.0688 | -0.149
x1 = 0.1005 | -0.229
x1 = 0.1295 | -0.307
x1 = 0.1325 | -0.309
x1 = 0.1565 | -0.372
x1 = 0.1793 | -0.423
x1 = 0.2167 | -0.494
x1 = 0.2914 | -0.652
x1 = 0.3555 | -0.774
x1 = 0.4111 | -0.839
x1 = 0.4577 | -0.843
x1 = 0.4979 | -0.84
x1 = 0.5577 | -0.816
x1 = 0.6277 | -0.755
x1 = 0.6654 | -0.712
x1 = 0.7123 | -0.664
x1 = 0.7577 | -0.609
x1 = 0.8121 | -0.514
x1 = 0.8537 | -0.435
x1 = 0.9099 | -0.252

ClCCCl [1,2-dichloroethane]
[1]
Conditions | Normal boiling temperature [°C] | mass density [kg/m3]
– | 83.80 | 1238.41

ClCCCl [1,2-dichloroethane] + C[S+](C)[O-]
[2]
Conditions | excess molar enthalpy [kcal/mol]
x1 = 0.0732 | -0.0141
x1 = 0.1296 | -0.0219
x1 = 0.1713 | -0.0257
x1 = 0.2259 | -0.0301
x1 = 0.2783 | -0.0361
x1 = 0.3275 | -0.0458
x1 = 0.3609 | -0.0548
x1 = 0.4054 | -0.0712
x1 = 0.4636 | -0.0899
x1 = 0.5266 | -0.11
x1 = 0.6133 | -0.138
x1 = 0.6613 | -0.143
x1 = 0.7158 | -0.131
x1 = 0.7593 | -0.127
x1 = 0.8032 | -0.106
x1 = 0.861 | -0.0677
x1 = 0.9269 | -0.0285

C[S+](C)[O-] [dimethyl sulfoxide]
[1]
Conditions | Normal boiling temperature [°C] | mass density [kg/m3]
– | 189.04 | 1092.4

ClC(Cl)=C(Cl)Cl [tetrachloroethene]
[1]
Conditions | Normal boiling temperature [°C] | mass density [kg/m3]
– | 121.00 | 1606.39

ClC(Cl)=C(Cl)Cl [tetrachloroethene] + C[S+](C)[O-]
[2]
Conditions | excess molar enthalpy [kcal/mol]
x1 = 0.0544 | 0.0285
x1 = 0.1116 | 0.0584
x1 = 0.171 | 0.0912
x1 = 0.2237 | 0.117
x1 = 0.2735 | 0.141
x1 = 0.3306 | 0.155
x1 = 0.385 | 0.157
x1 = 0.477 | 0.139
x1 = 0.5162 | 0.123
x1 = 0.5695 | 0.105
x1 = 0.6333 | 0.0866
x1 = 0.701 | 0.0645
x1 = 0.7632 | 0.0522
x1 = 0.8252 | 0.0488
x1 = 0.8872 | 0.0456
x1 = 0.9519 | 0.0314

ClC=C(Cl)Cl [trichloroethene]
[1]
Conditions | Normal boiling temperature [°C] | mass density [kg/m3]
– | 87.10 | 1451.42

ClC=C(Cl)Cl [trichloroethene] + C[S+](C)[O-]
[2]
Conditions | excess molar enthalpy [kcal/mol]
x1 = 0.0673 | -0.0229
x1 = 0.1345 | -0.0579
x1 = 0.2079 | -0.106
x1 = 0.3016 | -0.152
x1 = 0.3784 | -0.153
x1 = 0.4461 | -0.147
x1 = 0.4987 | -0.14
x1 = 0.6022 | -0.11
x1 = 0.6641 | -0.102
x1 = 0.7014 | -0.098
x1 = 0.737 | -0.0976
x1 = 0.8114 | -0.0854
x1 = 0.8611 | -0.0706
x1 = 0.9151 | -0.0481
